≈ marks a conversion by molar mass, not a printed value. Read-outs that look alike come from different tables or passages of the source.
Columns and labels:
[1] = test system: androgen receptor (AR); conditions: variety of cell lines; cited from earlier work
[2] = Freeze-thaw cycle stability of GMC1 plasma and urine samples; format: physicochemical, rat; conditions: read-out: Mean Recovery ± SD, freeze-thaw cycle stability
Experimental: The freeze-thaw cycle stability of GMC1 plasma and urine samples was evaluated by comparing QC plasma and urine samples exposed to three cycles of freeze (at −80° C.) and thaw (room temperature) to freshly prepared QC samples at the same concentration. Average recoveries from freeze-thawed plasma samples were 106±5.9%, 98.5±3.7% and 94.1±2.9% for GMC1 concentrations of 10, 200 and 400 ng/mL respectively. Average recovery from urine samples were 113±8.9%, 101±3.9%, and 86.6±7.5% for 10, 200 and 400 ng/mL GMC1 concentrations respectively.

[3] = Processed sample (on-instrument or auto-sampler) stability; format: physicochemical; conditions: rat
Experimental: The stability of processed samples (on-instrument or auto-sampler stability) was also evaluated by comparing freshly prepared plasma and urine QC samples to samples placed on the auto-sampler for 2, 4, and 6 h respectively. One set of the plasma and urine QC samples was extracted with methanol containing IS, and another set with pure methanol without IS.

[4] = Water-octanol partition co-efficient (log P), shaker method; format: physicochemical
Experimental: The water-octanol partition co-efficient (log P) of GMC1, a measure of how hydrophilic (“water-loving”) or hydrophobic (“water-fearing”) GMC1 is, was also evaluated using the shaker method.

[5] = test system: glucocorticoid receptor (GR); conditions: variety of cell lines; cited from earlier work
[6] = test system: 22Rv1 prostate cancer cell; test: 22Rv1 prostate cancer cell proliferation; format: cell-based
[7] = Pharmacokinetic study of the GMC1 co-solvent formulation, IV bolus; format: in vivo, male Sprague Dawley rats; conditions: rat, single 2 mg/kg IV bolus, three compartment model; for half-life / Vd: iv, 2 mg/kg
Experimental: Pharmacokinetic Studies of the GMC1 Co-Solvent Formulation. Pharmacokinetic study, which elucidates the fate of GMC1 in living systems, was performed. The pharmacokinetic study also verifies the applicability of the LC/MS/MS assay method and the formulation. A rat model was employed and male Sprague Dawley rats were selected as an animal model based on the similarity to humans in metabolism. Four male Sprague Dawley rats (body weight: 300-350 g) were cannulated through the jugular vein under anesthesia (using a cocktail of ketamine:acepromazine:xylazine at a ratio of 50:3.3:3.3 mg/kg). On the following day, the optimal co-solvent formulation of GMC1 (consisting of Labrasol® 50:50 PEG 300, and GMC1 10 mg/mL) was diluted ten times in normal saline to 1 mg/mL. Each rat was administered a 2 mg/kg IV bolus dose of GMC1. Heparinized blood samples were withdrawn from each rat at 5, 10, 15, 30, 60, 120, 240, 480, 720, 1440, 2880, 3240 min after injection. The blood samples were centrifuged at 14,000 rpm for 6 min and the supernatant plasma obtained and stored at −80° C. until analysis. Urine samples were also collected at 0, 60, 240, 480, 720, and 1440 min. The plasma and urine samples were analyzed (within 7 days) using the LC/MS/MS method described herein to obtain the concentration of GMC1.
The pharmacokinetic parameters for each rat were determined with Phoenix WinNonlin 6.3 software (Pharsight Corporation, Mountain View, Calif., USA) using a three compartment, which best described the fit for the IV bolus administration of GMC1, based on the observed and predicted fits of the plasma concentration versus time plot, the reduction in the sums of squares, and the Akaike's information criterion (AIC) for comparing compartmental models (Yamaoka et al., Journal of Pharmacokinetics and Biopharmaceutics 1978, 6(2):165-75). The three-compartment model is described by the equation: Ct=A·e^−αt+B·e^−βt+C·e^−γt where A, B and C are the coefficients, α, β, and γ are alpha, beta and gamma phase rate constants respectively, and Ct is the plasma concentration of GMC1 at time, t.
The weighting scheme of concentration^−2 (Y^−2) was used to determine the model that best fits the individual profiles.

[8] = Short-term (bench-top) stability of GMC1 plasma and urine samples; format: physicochemical, rat; conditions: read-out: Mean Recovery ± SD, short-term stability; for recovery at 2 h: bench-top 2 h; for recovery at 4 h: bench-top 4 h; for recovery at 6 h: bench-top 6 h
Experimental: The short-term (bench-top) stability of GMC1 plasma and urine samples was evaluated by analyzing three sets each of GMC1 plasma and urine samples freshly prepared and placed on the bench-top for 2, 4, and 6 h, respectively. All the samples were compared with freshly prepared samples of the same concentration.

[9] = Solubility of GMC1 in selected solvents by the shaker method; format: physicochemical; conditions: thermodynamic from solid, read-out: Mean Solubility ± SD
Experimental: Solubility information in various solvents is important in developing a suitable intravenous formulation of GMC1 for preclinical and clinical studies. The solubility of GMC1 in water, ethanol, polyethylene glycol 300 and 400, propylene glycol monocapryrate type I (Capyrol 90®), dimethyl sulfoxide (DMSO), dimethyl acetamide (DMA), Tween 80®, Labrasol®, Labrafac®, soybean oil, and oleic acid were determined by the shaker method. Briefly, excess amount of GMC1 was added to each of the selected solvents in a scintillation vial and shook using a reciprocating shaker at room temperature for 72 h. The samples were centrifuged at 14,000 rpm for 10 min and subsequently filtered through a 0.22 μm filtration unit, the resulting filtrate analyzed by LC/MS/MS to determine the GMC1 dissolved in the solvents. The study was conducted in triplicate.

[10] = processed plasma sample (methanol extract), plasma extracted with methanol containing IS, read-out: Mean Recovery ± SD, auto-sampler stability, With IS
[11] = processed plasma sample (methanol extract), plasma extracted with pure methanol, read-out: Mean Recovery ± SD, auto-sampler stability, No IS
[12] = processed urine sample (methanol extract), urine extracted with methanol containing IS, read-out: Mean Recovery ± SD, auto-sampler stability, With IS
[13] = processed urine sample (methanol extract), urine extracted with pure methanol, read-out: Mean Recovery ± SD, auto-sampler stability, No IS

Q: With `COc1ccc(/C=N/NC(=O)CSc2nc3ccccc3[nH]2)cc1` [GMC1] as the compound, how does the “concentration range inhibiting receptor activity” value [1] read?
A: low to mid micro-molar

Q: What about the recovery at 10 ng/mL ([2]; rat plasma, three cycles −80° C./room temperature) of the same compound?
A: 106 ± 5.9%

Q: And the recovery at 200 ng/mL ([2]; rat plasma, three cycles)?
A: 98.5 ± 3.7%

Q: And the recovery at 400 ng/mL ([2]; rat plasma, three cycles)?
A: 94.1 ± 2.9%

Q: And the recovery at 10 ng/mL ([2]; rat urine, three cycles)?
A: 113 ± 8.9%

Q: What about the recovery at 200 ng/mL ([2]; rat urine, three cycles) of the same compound?
A: 101 ± 3.9%

Q: What about the recovery at 400 ng/mL ([2]; rat urine, three cycles) of the same compound?
A: 86.6 ± 7.5%

Q: What about the recovery at 2 h [3, 10] of the same compound?
A: 89.9 ± 4.7%

Q: What about the recovery at 4 h [3, 10] of the same compound?
A: 97.5 ± 1.5%

Q: What about the recovery at 6 h [3, 10] of the same compound?
A: 96.2 ± 5.6%

Q: And the recovery at 2 h [3, 11]?
A: 94.7 ± 7.9%

Q: What about the recovery at 4 h [3, 11] of the same compound?
A: 99.7 ± 4.5%

Q: What about the recovery at 6 h [3, 11] of the same compound?
A: 98.4 ± 6.2%

Q: What about the recovery at 2 h [3, 12] of the same compound?
A: 96.4 ± 2.8%

Q: What about the recovery at 4 h [3, 12] of the same compound?
A: 98.5 ± 1.1%

Q: What about the recovery at 6 h [3, 12] of the same compound?
A: 97.1 ± 4.8%

Q: And the recovery at 2 h [3, 13]?
A: 96.1 ± 2.4%

Q: And the recovery at 4 h [3, 13]?
A: 89.7 ± 8.8%

Q: What about the recovery at 6 h [3, 13] of the same compound?
A: 95.2 ± 2.2%

Q: And the logP [4]?
A: 3.48 ± 0.03

Q: What about the “concentration range inhibiting receptor activity” value [5] of the same compound?
A: low to mid micro-molar

Q: And the “concentration range inhibiting cell proliferation” value [6]?
A: low micromolar

Q: What about the AUC(0-inf) ([7]; male, Sprague Dawley, plasma) of the same compound?
A: 3900 ng·h/mL

Q: And the Cmax ([7]; male, Sprague Dawley, plasma)?
A: 7640 ± 1980 ng/mL

Q: What about the clearance ([7]; male, Sprague Dawley, plasma, read-out: Cl (total body clearance)) of the same compound?
A: 8.9 ± 1.66 mL/min/kg

Q: And the half-life ([7]; male, Sprague Dawley, plasma, read-out: T1/2α (distribution half-life of α-phase))?
A: 0.11 ± 0.036 h

Q: And the half-life ([7]; male, Sprague Dawley, plasma, read-out: T1/2β (elimination half-life of β-phase))?
A: 1.23 ± 0.42 h

Q: And the half-life ([7]; male, Sprague Dawley, plasma, read-out: T1/2γ (elimination half-life of γ-phase))?
A: 19.7 ± 5.09 h

Q: What about the Vd ([7]; male, Sprague Dawley, plasma, read-out: V1 (volume of distribution of central compartment)) of the same compound?
A: 0.278 ± 0.0642 L/kg

Q: What about the Vd ([7]; male, Sprague Dawley, plasma, read-out: Vss (volume of distribution at steady state)) of the same compound?
A: 7.73 ± 1.22 L/kg

Q: What about the “A (coefficient of α-phase)” value [7] of the same compound?
A: 6528.9 ± 1996.01 ng/mL

Q: And the “B (coefficient of β-phase)” value [7]?
A: 1038.5 ± 546.09 ng/mL

Q: What about the “C (coefficient of γ-phase)” value [7] of the same compound?
A: 75.1 ± 20.24 ng/mL

Q: What about the “V2 (volume of distribution of first peripheral compartment)” value [7] of the same compound?
A: 0.5595 ± 0.20603 L/kg

Q: And the “V3 (volume of distribution of second peripheral compartment)” value [7]?
A: 6.8665 ± 1.11754 L/kg

Q: What about the recovery at 2 h ([8]; rat plasma) of the same compound?
A: 97.4 ± 8.89%

Q: What about the recovery at 4 h ([8]; rat plasma) of the same compound?
A: 88.9 ± 2.63%

Q: And the recovery at 6 h ([8]; rat plasma)?
A: 80.1 ± 5.71%

Q: And the recovery at 2 h ([8]; rat urine)?
A: 94.2 ± 4.66%

Q: What about the recovery at 4 h ([8]; rat urine) of the same compound?
A: 93.9 ± 0.76%

Q: And the recovery at 6 h ([8]; rat urine)?
A: 93.7 ± 1.23%

Q: And the solubility at 72 h ([9]; DMSO, organic solvent or mixture, DMSO, room temperature)?
A: ≥ 100 mg/mL

Q: And the solubility at 72 h ([9]; Labrafac, oil or lipid, Labrafac, room temperature)?
A: 1.2 ± 0.01 mg/mL (≈ 3.53 mM)

Q: What about the solubility at 72 h ([9]; Labrasol, aqueous with cosolvent or surfactant or cyclodextrin, Labrasol, room temperature) of the same compound?
A: 36.4 ± 2.9 mg/mL (≈ 107 mM)

Q: And the solubility at 72 h ([9]; PEG 300, organic solvent or mixture, PEG 300, room temperature)?
A: 36.6 ± 1.12 mg/mL (≈ 108 mM)

Q: What about the solubility at 72 h ([9]; PEG 400, organic solvent or mixture, PEG 400, room temperature) of the same compound?
A: 35.7 ± 1.41 mg/mL (≈ 105 mM)

Q: And the solubility at 72 h ([9]; Tween 80, aqueous with cosolvent or surfactant or cyclodextrin, Tween 80, room temperature)?
A: 20.3 ± 5.39 mg/mL (≈ 59.6 mM)

Q: What about the solubility at 72 h ([9]; dimethyl acetamide, organic solvent or mixture, Dimethyl acetamide, room temperature) of the same compound?
A: ≥ 100 mg/mL

Q: And the solubility at 72 h ([9]; ethanol, organic solvent or mixture, Ethanol, room temperature)?
A: 6.3 ± 0.29 mg/mL (≈ 18.5 mM)

Q: And the solubility at 72 h ([9]; oleic acid, oil or lipid, Oleic Acid, room temperature)?
A: 2.2 ± 0.02 mg/mL (≈ 6.46 mM)

Q: And the solubility at 72 h ([9]; soybean oil, oil or lipid, Soy bean oil, room temperature)?
A: 1.1 ± 0.02 mg/mL (≈ 3.23 mM)

— patent publication US10010534B2, “Intravenous formulation and LC/MS/MS analysis method for GMC1” (THE BOARD OF REGENTS OF THE UNIVERSITY OF TEXAS SYSTEM, priority 2016, dated 2018)
